Reference: patent US12098145B2 (Libra Therapeutics, Inc., priority 2022, dated 2024)
Where two headings read alike, the source gives them in different places.

Assays:
[1] = biological target: T1, TRPML1 (Homo sapiens, UniProt Q9GZU1); test: Cellular TRPML1 assay (FLIPR, GCaMP6f calcium read-out); assay type: cell-based
T1 construct: expressed in transfected cells; host or cells: HEK T-REx cells stably expressing GCaMP6f and TRPML1
Procedure, shortened: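 HEK T-REx cells stably expressing TRPML1 and GCaMP6f, seeded 24 h before in Optimem + 0.5% FBS. After ~10 min pre-incubation at room temperature, compounds in Ca2+-free Tyrode's buffer were injected on FLIPR Tetra (final DMSO 0.5%). Calcium fluorescence kinetics followed for 300 s.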

[2] = test system: TFEB; test: TFEB translocation assay (TFEB reporter in U2OS cells, imaging); assay type: cell-based; settings: Homo sapiens; U2OS cell line with TFEB reporter, 2 hours incubation, nucleus to cytoplasm ratio, normalized to Torin-1; read-out: TFEB Translocation pEC50 (converted)
Procedure, shortened: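 U2OS cells stably expressing mRFP-fused TFEB reporter, switched to Opti-MEM then treated 2 h at 37 °C with compounds (0.5% DMSO, 0.015% Tween 80). Hoechst-stained, PFA-fixed cells imaged at 20×; nucleus/cytoplasm intensity ratio per well normalized to Torin-1 (100%) and DMSO (0%).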

[3] = HEKT-REx/GCaMP6f/TRPML1 cells, FLIPR TETRA, kinetic response over 300 seconds, read-out: TRPML1 FLIPR pEC50 (converted)

T1 sequence (Q9GZU1 whole entry): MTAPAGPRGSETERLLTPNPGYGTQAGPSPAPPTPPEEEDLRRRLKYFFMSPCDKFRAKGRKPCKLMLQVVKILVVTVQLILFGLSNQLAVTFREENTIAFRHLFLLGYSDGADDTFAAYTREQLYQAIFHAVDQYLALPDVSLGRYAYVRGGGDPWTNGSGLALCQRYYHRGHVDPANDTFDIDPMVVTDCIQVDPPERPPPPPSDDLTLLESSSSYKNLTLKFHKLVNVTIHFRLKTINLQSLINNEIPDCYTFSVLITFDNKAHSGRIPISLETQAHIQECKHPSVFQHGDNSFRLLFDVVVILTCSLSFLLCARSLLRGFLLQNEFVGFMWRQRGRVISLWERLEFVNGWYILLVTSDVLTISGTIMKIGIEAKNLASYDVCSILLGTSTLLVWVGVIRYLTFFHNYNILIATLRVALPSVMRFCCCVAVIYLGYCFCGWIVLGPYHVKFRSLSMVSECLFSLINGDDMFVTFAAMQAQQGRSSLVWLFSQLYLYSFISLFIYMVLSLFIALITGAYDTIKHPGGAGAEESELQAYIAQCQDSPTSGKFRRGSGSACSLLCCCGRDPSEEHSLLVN

Row | EC50 [1, 3] | Structure (SMILES) | EC50 [2] | EC50 [1]
1 | 10 to 1000 nM | CCc1oc(N2CC(CC)(OC)C2)nc1C(=O)Nc1ccc(OC2CC3CC(C3)C2)c(F)c1 (stereo not shown) [Example 228, N-(4-(bicyclo[3.1.1]heptan-3-yloxy)-3-fluorophenyl)-5-ethyl-2-(3-ethyl-3-methoxyazetidin-1-yl)oxazole-4-carboxamide] | 10 to 1000 nM | –
2 | 10 to 1000 nM | CCc1oc(N2CCC3(CC3)C2)nc1C(=O)Nc1cc(F)c(O[C@@H]2C[C@@H]3C[C@@H]3C2)c(F)c1 [Example 235, N-(4-(cis-bicyclo[3.1.0]hexan-3-yloxy)-3,5-difluorophenyl)-5-ethyl-2-(5-azaspiro[2.4]heptan-5-yl)oxazole-4-carboxamide] | 10 to 1000 nM | –
3 | 10 to 1000 nM | CCc1oc(N2CC(CC)(OC)C2)nc1C(=O)Nc1cc(F)c(O[C@@H]2C[C@@H]3C[C@@H]3C2)c(F)c1 [Example 238, N-(4-(cis-bicyclo[3.1.0]hexan-3-yloxy)-3,5-difluorophenyl)-5-ethyl-2-(3-ethyl-3-methoxyazetidin-1-yl)oxazole-4-carboxamide] | 10 to 1000 nM | –
4 | 10 to 1000 nM | CCc1oc(N2CC(C)(OC)C2)nc1C(=O)Nc1cc(F)c(O[C@@H]2C[C@@H]3C[C@@H]3C2)c(F)c1 [Example 239, N-(4-(cis-bicyclo[3.1.0]hexan-3-yloxy)-3,5-difluorophenyl)-5-ethyl-2-(3-methoxy-3-methylazetidin-1-yl)oxazole-4-carboxamide] | 10 to 1000 nM | –
5 | 10 to 1000 nM | CCc1oc(N2CC3CCCC3C2)nc1C(=O)Nc1cc(F)c(OC2CC3C[C@H]3C2)c(F)c1 (stereo partly drawn) [Example 240, N-(4-(cis-bicyclo[3.1.0]hexan-3-yloxy)-3,5-difluorophenyl)-5-ethyl-2-(hexahydrocyclopenta[c]pyrrol-2(1H)-yl)oxazole-4-carboxamide] | 10 to 1000 nM | –
6 | 10 to 1000 nM | CCc1oc(N2CC3CCC3C2)nc1C(=O)Nc1cc(F)c(OC2CC3C[C@H]3C2)c(F)c1 (stereo partly drawn) [Example 241, N-(4-(cis-bicyclo[3.1.0]hexan-3-yloxy)-3,5-difluorophenyl)-2-(3-azabicyclo[3.2.0]heptan-3-yl)-5-ethyloxazole-4-carboxamide] | 10 to 1000 nM | –
7 | 10 to 1000 nM | CCc1oc(N2CCCC2)nc1C(=O)Nc1cc(F)c(O[C@@H]2C[C@@H]3C[C@@H]3C2)c(F)c1 [Example 244, N-(4-(cis-bicyclo[3.1.0]hexan-3-yloxy)-3,5-difluorophenyl)-5-ethyl-2-(pyrrolidin-1-yl)oxazole-4-carboxamide] | 10 to 1000 nM | –
8 | 10 to 1000 nM | CCc1oc(N2CC(CC)(CC)C2)nc1C(=O)Nc1ccc(O[C@@H]2C[C@@H]3C[C@@H]3C2)c(F)c1 [Example 245, N-(4-(cis-bicyclo[3.1.0]hexan-3-yloxy)-3-fluorophenyl)-2-(3,3-diethylazetidin-1-yl)-5-ethyloxazole-4-carboxamide] | 10 to 1000 nM | –
9 | 10 to 1000 nM | CCc1oc(N2CC3CCC3C2)nc1C(=O)Nc1ccc(OC2CC3C[C@H]3C2)c(F)c1 (stereo partly drawn) [Example 247, N-(4-(cis-bicyclo[3.1.0]hexan-3-yloxy)-3-fluorophenyl)-2-(3-azabicyclo[3.2.0]heptan-3-yl)-5-ethyloxazole-4-carboxamide] | 10 to 1000 nM | –
10 | 10 to 1000 nM | CCc1oc(N2CC(C)(OC)C2)nc1C(=O)Nc1ccc(O[C@@H]2C[C@@H]3C[C@@H]3C2)c(Cl)c1 [Example 249, N-(4-(cis-bicyclo[3.1.0]hexan-3-yloxy)-3-chlorophenyl)-5-ethyl-2-(3-methoxy-3-methylazetidin-1-yl)oxazole-4-carboxamide] | 10 to 1000 nM | –

More lines, now with the values behind:

Row | Structure (SMILES) | EC50 [1, 3] | EC50 [2] | EC50 [1]
11 | CCc1oc(N2CC(CC)(OC)C2)nc1C(=O)Nc1cc(C)c(O[C@@H]2C[C@@H]3C[C@@H]3C2)c(F)c1 [Example 227, N-(4-(cis-bicyclo[3.1.0]hexan-3-yloxy)-3-fluoro-5-methylphenyl)-5-ethyl-2-(3-ethyl-3-methoxyazetidin-1-yl)oxazole-4-carboxamide] | 10 to 1000 nM | 10 to 1000 nM | –
12 | CCc1oc(N2CCCC2)nc1C(=O)Nc1cc(F)c(OC2CC3CC(C3)C2)c(F)c1 (stereo not shown) [Example 229, N-(4-(bicyclo[3.1.1]heptan-3-yloxy)-3,5-difluorophenyl)-5-ethyl-2-(pyrrolidin-1-yl)oxazole-4-carboxamide] | 10 to 1000 nM | 10 to 1000 nM | –
13 | CCc1oc(N2CC(CC)(OC)C2)nc1C(=O)Nc1cc(F)c(OC2CC3CC(C3)C2)c(F)c1 (stereo not shown) [Example 230, N-(4-(bicyclo[3.1.1]heptan-3-yloxy)-3,5-difluorophenyl)-5-ethyl-2-(3-ethyl-3-methoxyazetidin-1-yl)oxazole-4-carboxamide] | 10 to 1000 nM | 10 to 1000 nM | –
14 | CCc1oc(N2CC(CC)(OC)C2)nc1C(=O)Nc1cc(F)c(N2CC3CC(C3)C2)c(F)c1 [Example 254, N-(4-(3-azabicyclo[3.1.1]heptan-3-yl)-3,5-difluorophenyl)-5-ethyl-2-(3-ethyl-3-methoxyazetidin-1-yl)oxazole-4-carboxamide] | – | 10 to 1000 nM | 10 to 1000 nM
15 | CCc1oc(N2CCCC2)nc1C(=O)Nc1cc(F)c(N2CC3CC(C3)C2)c(F)c1 [Example 255, N-(4-(3-azabicyclo[3.1.1]heptan-3-yl)-3,5-difluorophenyl)-5-ethyl-2-(pyrrolidin-1-yl)oxazole-4-carboxamide] | – | 10 to 1000 nM | 10 to 1000 nM
16 | CCc1oc(N2CC(C)(C)C2)nc1C(=O)Nc1cc(F)c(N2CC3CC(C3)C2)c(F)c1 [Example 256, N-(4-(3-azabicyclo[3.1.1]heptan-3-yl)-3,5-difluorophenyl)-2-(3,3-dimethylazetidin-1-yl)-5-ethyloxazole-4-carboxamide] | – | 10 to 1000 nM | 10 to 1000 nM
17 | CCc1oc(N2CC3(C2)CC(F)(F)C3)nc1C(=O)Nc1cc(F)c(N2CC3CC(C3)C2)c(F)c1 [Example 259, N-(4-(3-azabicyclo[3.1.1]heptan-3-yl)-3,5-difluorophenyl)-2-(6,6-difluoro-2-azaspiro[3.3]heptan-2-yl)-5-ethyloxazole-4-carboxamide] | 1000 to 10000 nM | 10 to 1000 nM | –
18 | CCC1(CC)CN(c2nc(C(=O)Nc3cc(C)c(OC4CC5CC(C5)C4)c(O)c3)c(CC(F)(F)F)o2)C1 (stereo not shown) [Example 260, N-(4-(bicyclo[3.1.1]heptan-3-yloxy)-3-hydroxy-5-methylphenyl)-2-(3,3-diethylazetidin-1-yl)-5-(2,2,2-trifluoroethyl)oxazole-4-carboxamide] | 10 to 1000 nM | 10 to 1000 nM | –
19 | CCC1(CC)CN(c2nc(C(=O)Nc3cc(O)c(OC4CC5CC(C5)C4)c(Cl)c3)c(CC(F)(F)F)o2)C1 (stereo not shown) [Example 261, N-(4-(bicyclo[3.1.1]heptan-3-yloxy)-3-chloro-5-hydroxyphenyl)-2-(3,3-diethylazetidin-1-yl)-5-(2,2,2-trifluoroethyl)oxazole-4-carboxamide] | 10 to 1000 nM | 10 to 1000 nM | –
20 | CCC1(CC)CN(c2nc(C(=O)Nc3cc(C)c(O[C@@H]4C[C@@H]5C[C@@H]5C4)c(O)c3)c(CC(F)(F)F)o2)C1 [Example 262, N-(4-(cis-bicyclo[3.1.0]hexan-3-yloxy)-3-hydroxy-5-methylphenyl)-2-(3,3-diethylazetidin-1-yl)-5-(2,2,2-trifluoroethyl)oxazole-4-carboxamide] | 10 to 1000 nM | 10 to 1000 nM | –
